Laboratory results reported in BindingDB's records for doi:10.7270/Q2N301S8 (D3R/Abbott, 2020).

Target: Beta-secretase 1 (Homo sapiens, UniProt P56817)
Assay: D3R2027
Description: D3R2027

Sequence of Beta-secretase 1 (P56817 whole entry): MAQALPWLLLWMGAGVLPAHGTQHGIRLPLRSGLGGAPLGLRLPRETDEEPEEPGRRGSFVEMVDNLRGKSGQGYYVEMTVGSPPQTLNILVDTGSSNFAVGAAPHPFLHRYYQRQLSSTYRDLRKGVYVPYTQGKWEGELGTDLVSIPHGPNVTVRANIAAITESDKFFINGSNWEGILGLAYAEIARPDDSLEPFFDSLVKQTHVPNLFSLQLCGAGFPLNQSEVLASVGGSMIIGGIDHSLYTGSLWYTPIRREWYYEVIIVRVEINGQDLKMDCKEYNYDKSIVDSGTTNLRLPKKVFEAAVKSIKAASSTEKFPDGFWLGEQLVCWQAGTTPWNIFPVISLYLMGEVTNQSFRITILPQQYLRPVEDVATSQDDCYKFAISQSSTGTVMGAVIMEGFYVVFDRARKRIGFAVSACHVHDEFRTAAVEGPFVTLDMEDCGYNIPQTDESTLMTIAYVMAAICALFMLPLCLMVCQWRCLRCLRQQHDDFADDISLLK

IC50 [nM]	Structure (SMILES)
240	CCCCNC(=O)[C@H](C)C[C@H](O)[C@@H]1Cc2cccc(c2)CCCCNc2cc(cc(C)n2)C(=O)N1 [BACE_155]
240	C[C@@H]1CCCCCCCCC(=O)N(C)[C@@H](C)C(=O)N[C@H]([C@H](O)CNC(C)(C)c2nnc(CC(C)(C)C)s2)C1 [BACE_31]
120	CC(C)c1cccc(C(C)(C)NC[C@@H](O)[C@@H]2Cc3cc(F)c(N)c(c3)CCCCNc3cccc(c3)C(=O)N2)c1 [BACE_116]
3600	CC(C)(NC[C@@H](O)[C@@H]1Cc2cccc(c2)CCCCNc2cc(c[n+](Cc3ccccc3)c2)C(=O)N1)c1cccc(Br)c1 [BACE_121]
39	COc1ccc2cc1OCCCCNc1cc(cc(Cl)n1)C(=O)N[C@H]([C@H](O)CNCc1cccc(C(C)C)c1)C2 [BACE_100]
1900	C[C@@H]1CCCCCCCNc2cccc(c2)C(=O)N[C@H]([C@H](O)CNCc2cc(C(C)(C)C)[nH]n2)C1 [BACE_58]
14	COc1cc2cc(n1)NCCCCCCC[C@@H](C)C[C@@H]([C@H](O)CNCc1cccc(C(C)C)c1)NC2=O [BACE_43]
110	CCCCNC(=O)[C@H](C)C[C@H](O)[C@@H]1Cc2cccc(c2)OCCCCS(=O)(=O)C[C@@H](C)C(=O)N1 [BACE_156]
8900	CCOc1ccc(C(F)(F)F)c(CNC[C@@H](O)[C@@H]2C[C@H](C)CCOCCCCNc3cccc(c3)C(=O)N2)c1 [BACE_72]
4500	COc1cc2cc(c1)C1=N[C@@H](C[C@H](C)CCCCCCCN2)[C@H](CO)O1 [BACE_142]
1000	CC(C)c1cccc(CNC[C@@H](O)[C@@H]2C[C@H](C)CCCCCOCC(=O)N(C)[C@@H](C)C(=O)N2)c1 [BACE_34]
570	COCc1cc2cc(c1)C(=O)N[C@H]([C@H](O)CNCc1cccc(C(C)C)c1)C[C@H](C)CCOCCCCN2 [BACE_10]
31	CC(C)c1cccc(CNC[C@@H](O)[C@@H]2C[C@H](C)CCOCCCCNc3cc(cc(Cl)n3)C(=O)N2)c1 [BACE_8]
3.5	CCN1CCCCC[C@@H](C)C[C@@H]([C@H](O)CNCc2cccc(C(C)C)c2)NC(=O)c2cc(cc(-c3ncco3)c2)C1=O [BACE_40]
7.5	C[C@@H]1CCCCCCOCC(=O)N(C)[C@@H](C)C(=O)N[C@H]([C@H](O)CNC2(c3cccc(C(C)(C)C)c3)CC2)C1 [BACE_4]
510	C[C@@H]1CCCCCCOCC(=O)N(C)[C@@H](C)C(=O)N[C@H]([C@H](O)CNCc2cncc(Br)c2)C1 [BACE_35]
120	Cc1cc2cc(n1)OCCCCOc1cccc(c1)C[C@@H]([C@H](O)CNC(C)(C)c1cc(C(C)(C)C)sn1)NC2=O [BACE_110]
1700	Cc1cc2cc(n1)OCCCOCC[C@@H](C)C[C@@H]([C@H](O)CNCc1cccc(C(C)C)c1)NC2=O [BACE_54]
1100	C[C@H]1C(=O)N[C@H]([C@H](O)CNCc2cncc(C3CC3)c2)Cc2cccc(c2)CCCCCCC(=O)N1C [BACE_87]
1600	Cc1cc2cc(n1)CCCCCc1cccc(c1)C[C@@H]([C@H](O)CNCc1cccc(C(C)C)c1)NC2=O [BACE_113]
2300	CC(C)c1cccc(C(C)(C)NC[C@@H](O)[C@@H]2Cc3cccc(c3)OCCCCNc3cccc(n3)C(=O)N2)c1 [BACE_122]
4000	CCCCNC(=O)[C@H](C)C[C@H](O)[C@@H]1Cc2ccc(O)c(c2)Cc2ccccc2OCCCCC(=O)N1 [BACE_158]

IC50 [nM]	Structure (SMILES)
37000	CC(C)c1ccnc(CNC[C@@H](O)[C@@H]2Cc3cccc(c3)OCCCCOc3cccc(c3)C(=O)N2C)c1 [BACE_139]
1700	CCc1cc(CNC[C@@H](O)[C@@H]2Cc3cccc(c3)OCCCCOc3cc(cc(C(=O)N(C)C)c3)C(=O)N2)ncn1 [BACE_141]
300	CC(C)c1cccc(CNC[C@@H](O)[C@@H]2C[C@H](C)CC/C=C/CCCCC(=O)N(C)[C@@H](C)C(=O)N2)c1 [BACE_21]
5.5	COCc1cc2cc(n1)NCCCCOCC[C@@H](C)C[C@@H]([C@H](O)CNC1(c3cccc(C(C)(C)C)c3)CC1)NC2=O [BACE_47]
290	CC(C)(NC[C@@H](O)[C@@H]1Cc2cccc(c2)OCCCCOc2cncc(c2)C(=O)N1)c1cccc(Br)c1 [BACE_138]
290	CC(C)c1cccc(C(C)(C)NC[C@@H](O)[C@@H]2Cc3cccc(c3)CCCCNc3cccc(c3)C(=O)N2)c1 [BACE_115]
130	CCCCNC(=O)[C@H](C)C[C@H](O)[C@@H]1Cc2cccc(c2)CCCCCNc2cc(cc(OC)n2)C(=O)N1 [BACE_154]
770	CCCCNC(=O)[C@H](C)C[C@H](O)[C@H](Cc1ccccc1)NC(=O)c1cc(NCCCC)nc(OC)c1 [BACE_20]
1700	CC(C)c1cccc(CNC[C@@H](O)[C@@H]2C[C@H](C)CCCCCCCC[C@@]3(O)CCC[C@H](C3)C(=O)N2)c1 [BACE_86]
6	C[C@@H]1CCCCCCCOc2cc(cc(C(=O)N(C)C)c2)C(=O)N[C@H]([C@H](O)CNC2(c3cc(C(C)(C)C)ccn3)CC2)C1 [BACE_83]
89	CC(C)(C)c1ccnc(CNC[C@@H](O)[C@@H]2Cc3cccc(c3)OC/C=C\CNc3cc(cc(Cl)n3)C(=O)N2)c1 [BACE_103]
130	CC(C)Cc1cncc(CNC[C@@H](O)[C@@H]2C[C@H](C)CC/C=C/CCCCC(=O)N(C)[C@@H](C)C(=O)N2)c1 [BACE_25]
150	Cc1cc2cc(n1)OCCCCc1cccc(c1)C[C@@H]([C@H](O)CNC(C)(C)c1cccc(C(C)C)c1)NC2=O [BACE_106]
1.5	C[C@@H]1CCCCCCCNc2cc(cc(C(=O)N(C)C)c2)C(=O)N[C@H]([C@H](O)CNC2(c3cccc(C(C)(C)C)c3)CC2)C1 [BACE_68]
1500	COCc1cc2cc(c1)C(=O)N[C@H]([C@H](O)CNCc1cc(OC)cc(OC)c1)C[C@H](C)CCCCCCCN2 [BACE_61]
1900	CC(C)c1cccc(CNC[C@@H](O)[C@@H]2C[C@H](C)CCCCCCCN(S(C)(=O)=O)c3cc(cc(N(C)S(C)(=O)=O)c3)C(=O)N2)c1 [BACE_69]
40000	NC[C@@H](O)[C@@H]1Cc2cccc(c2)OC/C=C\CNc2cc(cc(Cl)n2)C(=O)N1 [BACE_104]
6400	COCc1cc2cc(c1)C(=O)O[C@@H](CNC1(c3cccc(C(C)C)c3)CC1)[C@@H](N)Cc1cccc(c1)OCCCCN2 [BACE_144]
260	CC(C)c1cccc(CNC[C@@H](O)[C@@H]2Cc3cccc(c3)OCCCCO[C@H]3CCN(CC(=O)N2)C3=O)c1 [BACE_89]
0.5	CCCCNC(=O)[C@H](C)C[C@H](O)[C@@H]1C[C@H](C)CCCCCCC[C@H](NC(=O)c2ccncc2)C(=O)N[C@@H](C)C(=O)N1 [BACE_150]
68	Cc1cc2cc(c1)OCCCCNc1cc(cc(Cl)n1)C(=O)N[C@H]([C@H](O)CNCc1cccc(C(C)C)c1)C2 [BACE_105]
270	CC(C)Cc1cncc(C(C)(C)NC[C@@H](O)[C@@H]2C[C@H](C)CCCCCCCCC(=O)N(C)[C@@H](C)C(=O)N2)c1 [BACE_26]

IC50 [nM]	Structure (SMILES)
250	CC(C)c1cccc(CNC[C@@H](O)[C@@H]2Cc3cccc(c3)CCCCOc3cc(cc(-c4ncco4)c3)C(=O)N2)c1 [BACE_132]
78	COCc1cc2cc(c1)C(=O)N[C@H]([C@H](O)CNC1(c3cccc(C(C)C)c3)CC1)Cc1cccc(c1)OCCCO2 [BACE_140]
1.7	C[C@@H]1CCCCCCCNc2cc(cc(-c3ncco3)c2)C(=O)N[C@H]([C@H](O)CNC2(c3cc(C(C)(C)C)ccn3)CC2)C1 [BACE_59]
3400	COCc1cc2cc(c1)C(=O)N[C@H]([C@H](O)CNCc1ccc3c(c1)OCCCO3)C[C@H](C)CCCCCCCN2 [BACE_62]
72	COCc1cc2cc(c1)C(=O)N[C@H]([C@H](O)CNCc1cccc(C(C)C)c1)Cc1cccc(c1)OCCCCO2 [BACE_15]
7.5	CC(C)c1ccnc(C2(NC[C@@H](O)[C@@H]3C[C@H](C)CCCCCCCOc4cc(cc(Cl)n4)C(=O)N3)CC2)c1 [BACE_52]
57	CC(C)c1cccc(C(C)(C)NC[C@@H](O)[C@@H]2Cc3cccc(c3)OCCCCNc3cncc(c3)C(=O)N2)c1 [BACE_114]
8	CC(C)(C)Cc1cc(C(C)(C)NC[C@@H](O)[C@@H]2Cc3cccc(c3)OCCCCOc3cc(Cl)cc(c3)C(=O)N2)no1 [BACE_96]
150	C[C@@H]1CCOCCCCNc2cc(ccc2Cl)C(=O)N[C@H]([C@H](O)CNCc2cc(C(C)(C)C)ccn2)C1 [BACE_74]
9	CC(=O)c1cc2cc(c1)C(=O)N[C@H]([C@H](O)CNC1(c3cccc(C(C)C)c3)CC1)Cc1cccc(c1)OCCCCN2 [BACE_14]
2.5	COCc1cc2cc(c1)C(=O)N[C@H]([C@H](O)CN[C@H]1CC(C)(C)Oc3ccc(C(C)C)cc31)Cc1cccc(c1)OCCCCN2 [BACE_128]
4.5	CC(C)(C)Cc1cc(C(C)(C)NC[C@@H](O)[C@@H]2Cc3cccc(c3)OCCCCOc3cncc(c3)C(=O)N2)no1 [BACE_109]
27	CC(C)c1ccnc(CNC[C@@H](O)[C@@H]2Cc3cccc(c3)CCCCOc3cc(cc(N4CCCC4=O)c3)C(=O)N2)c1 [BACE_136]
9.5	CC(C)c1cccc(CNC[C@@H](O)[C@@H]2C[C@H](C)C/C=C\CCCCNc3cc(cc(Cl)n3)C(=O)N2)c1 [BACE_46]
7.8	COc1cc2cc(n1)NCCCCc1cccc(c1)C[C@@H]([C@H](O)CNCc1cccc(C(C)C)c1)NC2=O [BACE_12]
260	CCCCNC(=O)[C@H](C)C[C@H](O)[C@@H]1C[C@H](C)CCc2cccc(c2)CS(=O)(=O)C[C@@H](C)C(=O)N1 [BACE_19]
4300	CC(C)c1cccc(CNC[C@@H](O)[C@@H]2Cc3ccc(O)c(c3)Cc3ccccc3OCC(=O)N[C@@H](C)C(=O)N2)c1 [BACE_88]
920	CCCCNC(=O)[C@H](C)C[C@H](O)[C@@H]1C[C@H](C)CCCC[C@H](C)CCC(=O)N[C@@H](C)C(=O)N1 [BACE_147]
16	CCCCNC(=O)[C@H](C)C[C@H](O)[C@@H]1C[C@H](C)CCCCCN(CC)C(=O)c2cc(OCC)cc(c2)C(=O)N1 [BACE_1]
470	C/C1=C\[C@@H]([C@H](O)CNCc2cccc(C(C)C)c2)NC(=O)c2cc(Cl)nc(c2)NCCCCOCC1 [BACE_49]
8300	COCc1cc2cc(c1)C(=O)N[C@H]([C@H](O)[C@H]1CO[C@@H](COC)CN1)Cc1cccc(c1)OCCCCN2 [BACE_13]
340	CC(C)c1cccc(CNC[C@@H](O)[C@@H]2C[C@@H]3CC[C@H](CCCCCNc4cc(cc(C(F)(F)F)c4)C(=O)N2)C3)c1 [BACE_71]
